# Measurements as given in patent US20200230155A1, “TOPICAL CORTICOSTEROID COMPOSITIONS” (Encore Dermatology, Inc., priority 2014, published 2020).
# Read-outs that look alike come from different tables or passages of the source.
# Tests used:
# [1] = system: intact skin of healthy volunteers; assay: Irritation patch test study under semi-occlusive conditions; conditions: continuous exposure under semi occlusion, 21 patch applications over 21 days
# From the text: This was a randomized, double-blind, single-center, vehicle-controlled, within-subject comparison patch test study of followings for irritation potential when repeatedly applied to the skin under semi-occlusive conditions in healthy volunteers: • i. […] Vehicle spray (without active agent of Composition 6), • iii.
# All subjects received applications of each study product to intact skin at randomly assigned, adjacent sites on the back. Evaluators and subjects were blinded and unaware of the identity of the study product at the patch test sites. The study products were applied under semi-occlusive patch conditions using a 2 cm×2 cm patch. The products were applied to either side of the infrascapular area of the back. Evaluation of dermal reactions at the application sites were assessed clinically using a visual scale that rates the degree of erythema, edema, and other signs of cutaneous irritation.
# A total of 21 patch applications were made over a period of 21 days. Irritancy score of each composition was recorded.
# [2] = system: skin blanching; conditions: in vivo; cited from earlier work
# [3] = cited from earlier work
smiles,measurement,setting,value
"CCCCCCCCCCCCOS(=O)(=O)[O-].[Na+] [0.2% SLS, Sodium lauryl sulfate]",Irritation,[1],Significantly more irritation
"CCC(=O)OCC(=O)[C@@]1(OC(=O)CC)[C@@H](C)C[C@H]2[C@@H]3CCC4=CC(=O)C=C[C@]4(C)[C@@]3(F)[C@@H](O)C[C@@]21C [Betamethasone dipropionate, 9-fluoro-11(β),17,21-trihydroxy-16(β)-methylpregna-1,4-diene-3,20-dione 17,21-dipropionate]",VCA potency class,[2],super potent (Class 1) and/or high potent (Class 2)
same,Solubility,[3]; in acetone,freely soluble
same,Solubility,[3]; in chloroform,freely soluble
same,Solubility,[3]; in ethanol,sparingly soluble
same,Solubility,[3]; in water,practically insoluble
